According to US20040087602A1, “Stabilized brivudine topical formulations” (priority 2001, published 2004):
Where “and” joins values, the source holds several entries; their conditions need not be identical. Equal values may be shown once.

How the values were obtained:
[1] = test system: 23 clinical HSV-1 strains; conditions: mean of 23 clinical HSV-1 strains, in vitro; cited from earlier work
13 clinical VZV strains = conditions: mean of 13 clinical VZV strains, in vitro; cited from earlier work
[2] = photo-stabilization test of cream, UV-lamp irradiation; assay type: physicochemical; conditions: 2 hours UV-lamp
Experimental: Studies of photo-stabilization were conducted encapsulating the active ingredient in cyclodextrin-complexes (e.g. α-, β-, γ-cyclodextrin-complexes) or adding different stabilizers. Known photo-stabilizers like anti-oxidants (e.g. propylgallate, alfa-liponic acid), chemical UV-filters (e.g. octyl triazone) and pigments (titanium dioxide, zinc oxid, iron oxid yellow) were used. The efficiency of photo-stabilization was tested by determination of the content of brivudine after 2 hours of irradiation with UV-lamp (dose of 1 MED [Minimal […] dose, 24.8 Wh/m^2, UVA-light]. UVA-light was applied directly to the cream without primary packaging The higher the content of unchanged brivudine after irradiation, the better the photo-stability. […] The pigment iron oxide yellow at a concentration 20% w/w also gave about 85% brivudine content.

[3] = photodegradation according to ICH guideline CPMP/ICH/279/95; assay type: physicochemical; conditions: unpacked samples without stabilizer, 9.6 hours at 49.5 W/m^2 (dose 475 Wh/m^2)
From the text: The degradation of brivudine was investigated according to the ICH (International Conference on Harmonization) guideline CPMP/ICH/279/95. […] The brivudine content decreases from about 100% to about 70% after irradiation. At the same time the samples show an increase of known and unknown impurities of about 30%.

[4] = test system: 20 clinical isolates (HSV-1); conditions: two similar assays, one value per assay; cited from earlier work

In the case of `Nc1nc2c(ncn2COCCO)c(=O)[nH]1` [acyclovir], the “mean IC50 in a panel of 23 clinical HSV-1 strains” value [1] is listed as 0.92 µg/mL and the “mean IC50 in 13 clinical VZV strains” value (13 clinical VZV strains) is listed as 0.2 µg/mL.

For `O=c1[nH]c(=O)n([C@H]2C[C@H](O)[C@@H](CO)O2)cc1/C=C/Br` [brivudine, (E)-5-(2-bromovinyl)-2′-deoxyuridine], the “brivudine content after irradiation” value ([2]; iron oxide yellow 20% w/w, 1 MED) was “about 85%”, the “brivudine final content after irradiation” value ([2]; titanium dioxide 20% w/w, 1 MED) was “about 85%” and the “brivudine content after irradiation, % of the initial concentration” value ([2]; without photo-stabilizer, 5% w/w brivudine cream, 1 MED (24.8 Wh/m^2, UVA)) was “about 40%”. For the same compound, the “mean IC50 in a panel of 23 clinical HSV-1 strains” value [1] was 0.52 µg/mL, the “mean IC50 in 13 clinical VZV strains” value (13 clinical VZV strains) was 0.001 µg/mL and the “increase of known and unknown impurities” value [3] was “about 30%”. For the same compound, the “brivudine content after irradiation” value ([3]; from about 100%) was “about 70%”.

In the case of `Nc1nc2c(ncn2CCC(CO)CO)c(=O)[nH]1` [penciclovir], the “mean IC50 in a panel of 20 clinical isolates” value [4] is listed as 0.6 µg/mL and 0.8 µg/mL and the “mean IC50 in 13 clinical VZV strains” value (13 clinical VZV strains) is listed as 0.91 µg/mL.
